Patent US20250277794A1, “SQSTM1 AND ITS USE IN CANCER THERAPY” (CENTRE NATIONAL DE LA RECHERCHE SCIENTIFIQUE, priority 2020, published 2025)

B1: IFNG: IFNγ (C-60724 Promokine), positive control (protein, UniProt P01579 24-161, looked up)
Interferon gamma: QDPYVKEAENLKKYFNAGHSDVADNGTLFLGILKNWKEESDRKIMQSQIVSFYFKLFKNFKDDQSIQKSVETIKEDMNVKFFNSNKKKRDDFEKLTNYSVTDLNVQRKAIHELIQVMAELSPAAKTGKRKRSQMLFRG

Key:
Assay type in all cases: cell-based, human
[1] = tested on: ShSQSTM1 A549 cells; assay: Cell viability / Crystal Violet Cytotoxicity Assay, dose-response IC50, shSQSTM1 A549 cells
Method: (§1) The majority of experiments presented in this study was performed with the human KRAS G12S/SKT11 Q37* co-mutated NSCLC A549 cells (American Type Tissue Collection, ATCC). All cells were maintained in Dulbecco's-modified minimum essential medium and Ham's F-12 medium (DMEM/F12 Glutamax; Life Technologies) supplemented with 10% fetal bovine serum (Dutcher), 2% Sodium Pyruvate, and 1% Penicillin-Streptomycin (Life technologies). To establish SQSTM1 knockdown stable cell lines, cells were transduced with small hairpin RNAs (shRNAs) lentiviruses that target the mRNA coding sequence of SQSTM1. Two distinct SQSTM1 shRNAs (Sigma, human, NM_003900, SQSTM1 #1, TRCN0000007237, and SQSTM1 #2, TRCN0000007236) were used to minimize sequence-dependent off-target effects. As controls, autophagy was inhibited at the initiation step by ATG5 (Sigma, human, NM_004849, ATG5 #1, TRCN0000151963) or ATG7 shRNA (Sigma, human, NM_006395, TRCN0000007584). For this purpose, the targeted and control (Sigma; SHC002V) shRNA lentivirus were transduced into the cells. ShRNA-mediated protein downregulation was controlled by qRT-PCR or immunoblotting with specific primers and antibodies (see for shRNA, primer, and antibody details the supplemental Tables 1 to 3).
(§2) For all experiments, cells were seeded in 6-well plates or 60 mm culture dishes and incubated until they reached 60-70% confluency.

[2] = tested on: shControl (ShC) A549 cells; assay: Cell viability / Crystal Violet Cytotoxicity Assay, dose-response IC50, shControl A549 cells
Method: as §1, §2

[3] = tested on: HLA-B and PD-L1 expression in ShC A549 cells; assay: IFN/HLA-B/PD-L1 pathway expression (qRT-PCR, western blot, flow cytometry) in shControl A549 cells; settings: for Induction of HLA-B and PD-L1 expression: ShC (SQSTM1 positive) A549 cells, 5-Aza 500 nM, 5 and 6 days, IFNG 50 ng/ml
[4] = tested on: 53BP1-positive foci in A549 cells; assay: Global DNA damage measured by 53BP1 focus formation (immunofluorescence); settings: Cisplatin 10 μM, FIG. 18
Method: At the indicated time, global DNA damage (A) was measured by 53BP1 focus formation (right immunofluorescence staining, 53BP1 red, Dapi, blue. Left, cell percentage with more than five spots).

[5] = tested on: HLA-B and PD-L1 expression in ShSQSTM1 A549 cells; assay: IFN/HLA-B/PD-L1 pathway expression (qRT-PCR, western blot, flow cytometry) in SQSTM1-depleted A549 cells; settings: docetaxel 5 nM; for TBK1/STAT1 phosphorylation and expression of IFN, HLA-B and PD-L1 in SQSTM1-depleted cells: Cisplatin 10 μM, IFNG 50 ng/ml
Method: as §2
Quantitative real-time polymerase chain reaction analysis was performed on equal amounts of cDNA using the SYBR Green master mix and an Applied StepOne Plus PCR system (Life technologies). Relative gene expression changes were quantified using the 2 [−ΔΔCt] method and normalized to the housekeeping gene RPLP0 compared to the untreated cell samples.
Cell-surface expression of PD-L1 was examined using flow cytometry. […] Flow cytometry analysis was performed on a Cytoflex flow cytometer (10,000 cells, Cytoflex software). The MFI (PD-L1-isotype) is calculated as the MFI (PD-L1) is subtracted by the MFI (isotype control).

[6] = Homo sapiens, ShSQSTM1 A549, dose-response curves (Cell Treatments)
[7] = Homo sapiens, Shc A549, dose-response curves (Cell Treatments)
[8] = ShSQSTM1 A549, dose-response curves (Cell Treatments)
[9] = Shc A549, dose-response curves (Cell Treatments)

Molecule | IC50 [1, 6] [nM] | IC50 [2, 7] [nM] | Induction of HLA-B and PD-L1 expression [3] | TBK1/STAT1 phosphorylation and expression of IFN, HLA-B and PD-L1 in SQSTM1-depleted cells [5] | other results
CC(=O)O[C@H]1C(=O)[C@@]2(C)[C@H]([C@H](OC(=O)c3ccccc3)[C@]3(O)C[C@H](OC(=O)[C@H](O)[C@@H](NC(=O)c4ccccc4)c4ccccc4)C(C)=C1C3(C)C)[C@]1(OC(C)=O)CO[C@@H]1C[C@@H]2O [Paclitaxel] | 3.7 | 1.4 |  |  | 
N.N.[Cl][Pt][Cl] [Cisplatin] |  |  | most effective drug for inducing HLA-B and PD-L1 | did not up-regulate | IC50 [1, 8]: 47700 nM; IC50 ([1]; ShSQSTM1 A549 cells, Cisplatin 5 days, FIG. 14): 51000 ± 5300 nM; Start of formation of 53BP1-positive foci [4]: 6 h; Time of peak value of 53BP1-positive foci [4]: 16 h; IC50 [2, 9]: 24000 nM; IC50 ([2]; control ShC A549 cells, Cisplatin 5 days, FIG. 14): 24000 ± 1400 nM
O=C1[O][Pt]2([NH][C@@H]3CCCC[C@H]3[NH]2)[O]C1=O [Oxaliplatin] |  |  | recapitulated the late induction of this pathway |  | IC50 [1, 8]: 4510 nM; IC50 [2, 9]: 2610 nM
CO/C1=C\C(C)=C\[C@@H](C)[C@@H](O)[C@@H](C)C/C(C)=C/C=C/[C@H](OC)[C@@H]([C@@H](C)[C@@H](O)[C@H](C)[C@@]2(O)C[C@@H](O)[C@H](C)[C@@H](C(C)C)O2)OC1=O [bafA1] |  |  |  |  | HLA-B and PD-L1 expression on pharmacological autophagy inhibition ([3]; A549 cells, data not shown): enhanced expression of HLA-B and PD-L1
CC(=O)O[C@@]12CO[C@@H]1C[C@H](O)[C@@]1(C)C(=O)[C@H](O)C3=C(C)[C@@H](OC(=O)[C@H](O)[C@@H](NC(=O)OC(C)(C)C)c4ccccc4)C[C@@](O)([C@@H](OC(=O)c4ccccc4)[C@H]21)C3(C)C [Docetaxel] | 21.3 | 364 |  | significantly rescued | Growth arrest and DNMT1 downregulation ([3]; Shc A549 cells, docetaxel 5 nM, qRT-PCR): did trigger growth arrest and DNMT1 downregulation; Growth arrest and DNMT1 downregulation ([5]; qRT-PCR): did trigger growth arrest and DNMT1 downregulation
O=C(NCCCNc1nc(Nc2cccc(CN3CCOCC3)c2)ncc1C1CC1)C1CCC1 [MRT 67307] |  |  |  |  | Block of Cisplatin ability to induce IFN/HLA B/PD-L1 ([3]; co-treatment with Cisplatin 10 μM, MRT 67307 10 μM, Ruxolitinib 5 μM, FIG. 26): sufficient to block
Nc1ncn([C@@H]2O[C@H](CO)[C@@H](O)[C@H]2O)c(=O)n1 [5-Azacytidine] |  |  | recapitulated the late expression of HLA-B and PD-L1 |  | 
COc1cccc2c1C(=O)c1c(O)c3c(c(O)c1C2=O)C[C@@](O)(C(=O)CO)C[C@@H]3O[C@H]1C[C@H](N)[C@H](O)[C@H](C)O1 [Doxorubicin] | 486 | 364 | recapitulated the late induction of this pathway |  | 
B1 |  |  | induced STAT1 phosphorylation, HLA-B, and PD-L1 expression | induced STAT1 phosphorylation, HLA-B, and PD-L1 expression | 
